Experimental data as given in ChEMBL document CHEMBL1201862, “PubChem BioAssay data set” (2004).
Calls of active or inactive are those of the source.

Tests used:
[1] = molecular target: Lysosomal acid glucosylceramidase (Homo sapiens, UniProt P04062); experiment: Dose response cell-based high throughput screening assay to identify enhancers of beta-glucosidase activity. [Related pubchem assays: 784 ]; type: functional
Cytochrome P450 2D6 = Cytochrome P450 2D6 (Homo sapiens, UniProt P10635); experiment: qHTS Assay for Inhibitors and Substrates of Cytochrome P450 2D6. [Related pubchem assays: 410 ]; type: ADME; details: read-out: Potency
Cytochrome P450 3A4 = Cytochrome P450 3A4 (Homo sapiens, UniProt P08684); details: Potency;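 note: confirmatory qHTS run detecting inhibitors and substrates of CYP3A4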
[2] = molecular target: T1, Heat shock factor protein 1 (Mus musculus, UniProt P38532); experiment: inhibition of MG132-induced HSE-luciferase signal, confirmation, cell-based, NIH3T3, luminescence, dose retest (AID 2382); type: functional;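 note: NIH3T3 fibroblasts with HSF1-driven luciferase reporter stressed by proteasome inhibitor MG132; luminescence from HSF1-driven luciferase expression after 8 hours of MG132 stress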
T1 sequence (P38532 whole entry): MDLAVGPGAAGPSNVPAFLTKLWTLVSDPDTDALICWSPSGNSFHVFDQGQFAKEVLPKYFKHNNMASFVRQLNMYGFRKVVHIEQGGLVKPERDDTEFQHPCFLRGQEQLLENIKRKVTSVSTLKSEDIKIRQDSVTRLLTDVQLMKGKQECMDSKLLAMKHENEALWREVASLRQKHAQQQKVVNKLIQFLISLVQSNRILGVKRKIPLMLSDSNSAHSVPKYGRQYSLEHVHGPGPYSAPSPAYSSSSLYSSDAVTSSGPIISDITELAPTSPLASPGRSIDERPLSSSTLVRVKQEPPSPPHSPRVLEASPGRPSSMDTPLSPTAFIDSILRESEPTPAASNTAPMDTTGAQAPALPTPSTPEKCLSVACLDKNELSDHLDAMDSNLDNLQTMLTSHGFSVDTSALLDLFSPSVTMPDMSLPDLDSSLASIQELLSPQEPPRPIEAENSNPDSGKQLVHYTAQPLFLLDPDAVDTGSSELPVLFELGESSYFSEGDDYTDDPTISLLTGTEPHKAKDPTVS

Vibrio harveyi [3] = experiment: Quorum Sensing, LuxS, LuxPQ Measured in Microorganism System Using Plate Reader - 2035-01_Inhibitor_DoseNoFile_DryPowder_Activity. [Related pubchem assays (depositor defined):AID2106]; type: functional, organism-based
Vibrio harveyi [4] = experiment: inhibitors of AI-2 quorum sensing in V. harveyi, dose response, LuxS, LuxPQ, dry powder, set 2 (AID 493072); type: functional, organism-based
[5] = inhibitors of firefly luciferase expression or activity, dose response, H4 neuroglioma cells, luminescence (AID 1990); type: functional, cell-based
[6] = luciferase reporter signal reduction – luminescence, H4-C neuroglioblastoma cells, dose response (AID 2458); type: functional, cell-based;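 note: H4 neuroglioblastoma cells stably carrying a luciferase reporter gene fusion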
cells = type: functional, cell-based
[7] = Luminescence Cell-Based Dose Response HTS to Identify Inhibitors of 5'UTR Stem-Loop Driven Prion Protein mRNA Translation in H4 Neuroglioblastoma Cells. [Related pubchem assays: 1827 (Project Summary), 1813 (Primary HTS)]; type: functional
[8] = inhibitors of SNCA 5'UTR-driven reporter translation, confirmation, H4 neuroglioma cells, luminescence (AID 1988); type: functional, cell-based
[9] = inhibitors of SNCA 5'UTR-driven translation, confirmation, luminescence, H4 neuroglioblastoma cells, dose confirmation (AID 2454); type: functional, cell-based;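 note: H4 neuroglioblastoma cells carrying an alpha-synuclein 5'UTR luciferase reporter; potency for inhibition of the luciferase signal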
[10] = cytotoxicity in HEK-293T cells, dose response, cytotoxicity control for BCR NF-kB inhibitor project, luminescence, B-cell screen hits (AID 489021); type: functional, cell-based;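 note: HEK-293T cells carrying an NF-kB luciferase reporter; cells exposed to compound for about 14 hours before viability readout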
SUMO-activating enzyme [11] = molecular target: T2, SUMO-activating enzyme (Homo sapiens, UniProt Q9UBT2); experiment: SUMOylation inhibitor hit validation, confirmation, SUMOylation inhibitor project, biochemical, AlphaScreen (AID 2018); type: functional
T2 sequence (Q9UBE0 whole entry): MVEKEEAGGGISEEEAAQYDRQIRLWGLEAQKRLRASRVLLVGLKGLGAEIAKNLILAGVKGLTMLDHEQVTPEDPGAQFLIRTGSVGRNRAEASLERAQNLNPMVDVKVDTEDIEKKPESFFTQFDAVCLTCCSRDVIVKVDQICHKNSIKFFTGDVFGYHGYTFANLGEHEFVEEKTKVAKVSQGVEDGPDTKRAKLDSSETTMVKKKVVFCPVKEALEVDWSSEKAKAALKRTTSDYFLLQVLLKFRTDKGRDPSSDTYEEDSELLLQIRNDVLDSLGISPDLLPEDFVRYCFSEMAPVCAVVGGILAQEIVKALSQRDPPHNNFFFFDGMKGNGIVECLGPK
T2 sequence (Q9UBT2 whole entry): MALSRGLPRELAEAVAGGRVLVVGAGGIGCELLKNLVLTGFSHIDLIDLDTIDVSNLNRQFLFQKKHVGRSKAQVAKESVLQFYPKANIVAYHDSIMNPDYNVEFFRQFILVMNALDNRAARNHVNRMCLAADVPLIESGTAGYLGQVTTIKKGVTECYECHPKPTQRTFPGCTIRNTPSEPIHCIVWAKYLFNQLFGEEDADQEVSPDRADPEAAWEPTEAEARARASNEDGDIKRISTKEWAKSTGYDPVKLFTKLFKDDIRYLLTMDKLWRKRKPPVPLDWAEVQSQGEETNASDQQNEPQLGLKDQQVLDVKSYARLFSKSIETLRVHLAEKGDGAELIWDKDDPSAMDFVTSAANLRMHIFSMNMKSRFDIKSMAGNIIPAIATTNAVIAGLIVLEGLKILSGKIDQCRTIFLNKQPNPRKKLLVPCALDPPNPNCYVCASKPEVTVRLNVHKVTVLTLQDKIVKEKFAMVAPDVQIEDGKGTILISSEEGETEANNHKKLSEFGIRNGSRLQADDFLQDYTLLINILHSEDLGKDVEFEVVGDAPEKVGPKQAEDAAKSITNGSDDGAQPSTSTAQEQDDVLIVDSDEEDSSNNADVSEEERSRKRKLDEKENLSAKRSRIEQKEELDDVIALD

SUMO-activating enzyme [12] = molecular target: T2, SUMO-activating enzyme; experiment: inhibitors of in vitro SUMOylation cascade, primary screen, biochemical, HTRF, uHTS (AID 2006); type: protein-complex assay
[13] = Luminescence Cell-Based Dose Retest to Confirm Inhibitors of Cancer Stem Cells. [Related pubchem assays (depositor defined):AID2717, AID2721]; type: functional; details: Homo sapiens
[14] = molecular target: C-C chemokine receptor type 6 (Homo sapiens, UniProt P51684); experiment: CCR6 receptor antagonists, dose response, cell-based, luminescent beta-arrestin readout (AID 504728); type: functional
Beta-galactosidase = Beta-galactosidase (Escherichia coli, UniProt Q8VNN2); experiment: beta-galactosidase enzyme inhibitors and activators, dose response, artefact control for CCR6 antagonist project, biochemical, E. coli enzyme, set 3 (AID 504712); type: functional
[15] = molecular target: Neurotensin receptor type 1 (Homo sapiens, UniProt P30989); type: functional;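 note: Image-based confirmatory dose-response assay measuring agonist activity at NTR1; NTR1-expressing U2OS osteosarcoma cells imaged for beta-arrestin GFP spot formation; agonist potency where compounds increase beta-arrestin recruitment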
[16] = molecular target: T3, Type-1 angiotensin II receptor (Homo sapiens, UniProt P30556); experiment: AT1 receptor agonists, dose response, selectivity assay for APJ receptor agonist project, cell-based, uHTS hits (AID 488865); type: functional;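 note: beta-arrestin recruitment to AT1 measured by enzyme fragment complementation luminescence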
T3 sequence (P30556 whole entry): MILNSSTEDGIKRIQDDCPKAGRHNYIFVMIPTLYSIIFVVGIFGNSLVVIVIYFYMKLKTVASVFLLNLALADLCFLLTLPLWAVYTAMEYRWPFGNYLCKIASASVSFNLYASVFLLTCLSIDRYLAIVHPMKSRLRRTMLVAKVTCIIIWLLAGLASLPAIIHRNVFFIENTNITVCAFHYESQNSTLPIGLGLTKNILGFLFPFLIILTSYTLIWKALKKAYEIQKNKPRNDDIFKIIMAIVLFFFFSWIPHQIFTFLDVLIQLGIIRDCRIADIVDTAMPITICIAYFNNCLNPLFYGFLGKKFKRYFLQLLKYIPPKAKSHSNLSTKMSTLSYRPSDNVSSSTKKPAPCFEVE

[17] = Shn3 3'UTR reporter inhibitors, dose response, cell-based, Clone20 osteoblasts, firefly luciferase, cherry-picked (AID 624132); type: functional;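 note: firefly luciferase luminescence from reporter carrying the Shn3 3'UTR in osteoblasts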
[18] = control 3'UTR Renilla luciferase suppression, dose response, counter-screen for Shn3 inhibitor project, cell-based, Clone20-Shn3RL, cherry-picked (AID 624133); type: functional
[19] = Artemis endonuclease inhibitor potency, dose response, biochemical, fluorescence intensity (AID 720701); type: functional;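 note: Artemis endonuclease enzyme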
SUMO E1/E2 = SUMO E1/E2 (Homo sapiens, UniProt P63279+Q9UBE0+Q9UBT2); experiment: SAR analysis of SUMOylation using HTRF in an in-Vitro dose response assay. [Related pubchem assays (depositor defined):AID2006, AID2011, AID2018, AID2069, AID2658]; type: functional
[20] = molecular target: T4, Voltage-gated N-type calcium channel alpha-1B subunit/Amyloid beta A4 precursor protein-binding family A member 1 (Homo sapiens, UniProt Q00975+Q02410); experiment: disruptors of Mint-PDZ/N-type channel peptide interaction – biochemical, HTRF, set 2, SAR follow-up (AID 434980); type: functional
T4 sequence (Q00975 whole entry): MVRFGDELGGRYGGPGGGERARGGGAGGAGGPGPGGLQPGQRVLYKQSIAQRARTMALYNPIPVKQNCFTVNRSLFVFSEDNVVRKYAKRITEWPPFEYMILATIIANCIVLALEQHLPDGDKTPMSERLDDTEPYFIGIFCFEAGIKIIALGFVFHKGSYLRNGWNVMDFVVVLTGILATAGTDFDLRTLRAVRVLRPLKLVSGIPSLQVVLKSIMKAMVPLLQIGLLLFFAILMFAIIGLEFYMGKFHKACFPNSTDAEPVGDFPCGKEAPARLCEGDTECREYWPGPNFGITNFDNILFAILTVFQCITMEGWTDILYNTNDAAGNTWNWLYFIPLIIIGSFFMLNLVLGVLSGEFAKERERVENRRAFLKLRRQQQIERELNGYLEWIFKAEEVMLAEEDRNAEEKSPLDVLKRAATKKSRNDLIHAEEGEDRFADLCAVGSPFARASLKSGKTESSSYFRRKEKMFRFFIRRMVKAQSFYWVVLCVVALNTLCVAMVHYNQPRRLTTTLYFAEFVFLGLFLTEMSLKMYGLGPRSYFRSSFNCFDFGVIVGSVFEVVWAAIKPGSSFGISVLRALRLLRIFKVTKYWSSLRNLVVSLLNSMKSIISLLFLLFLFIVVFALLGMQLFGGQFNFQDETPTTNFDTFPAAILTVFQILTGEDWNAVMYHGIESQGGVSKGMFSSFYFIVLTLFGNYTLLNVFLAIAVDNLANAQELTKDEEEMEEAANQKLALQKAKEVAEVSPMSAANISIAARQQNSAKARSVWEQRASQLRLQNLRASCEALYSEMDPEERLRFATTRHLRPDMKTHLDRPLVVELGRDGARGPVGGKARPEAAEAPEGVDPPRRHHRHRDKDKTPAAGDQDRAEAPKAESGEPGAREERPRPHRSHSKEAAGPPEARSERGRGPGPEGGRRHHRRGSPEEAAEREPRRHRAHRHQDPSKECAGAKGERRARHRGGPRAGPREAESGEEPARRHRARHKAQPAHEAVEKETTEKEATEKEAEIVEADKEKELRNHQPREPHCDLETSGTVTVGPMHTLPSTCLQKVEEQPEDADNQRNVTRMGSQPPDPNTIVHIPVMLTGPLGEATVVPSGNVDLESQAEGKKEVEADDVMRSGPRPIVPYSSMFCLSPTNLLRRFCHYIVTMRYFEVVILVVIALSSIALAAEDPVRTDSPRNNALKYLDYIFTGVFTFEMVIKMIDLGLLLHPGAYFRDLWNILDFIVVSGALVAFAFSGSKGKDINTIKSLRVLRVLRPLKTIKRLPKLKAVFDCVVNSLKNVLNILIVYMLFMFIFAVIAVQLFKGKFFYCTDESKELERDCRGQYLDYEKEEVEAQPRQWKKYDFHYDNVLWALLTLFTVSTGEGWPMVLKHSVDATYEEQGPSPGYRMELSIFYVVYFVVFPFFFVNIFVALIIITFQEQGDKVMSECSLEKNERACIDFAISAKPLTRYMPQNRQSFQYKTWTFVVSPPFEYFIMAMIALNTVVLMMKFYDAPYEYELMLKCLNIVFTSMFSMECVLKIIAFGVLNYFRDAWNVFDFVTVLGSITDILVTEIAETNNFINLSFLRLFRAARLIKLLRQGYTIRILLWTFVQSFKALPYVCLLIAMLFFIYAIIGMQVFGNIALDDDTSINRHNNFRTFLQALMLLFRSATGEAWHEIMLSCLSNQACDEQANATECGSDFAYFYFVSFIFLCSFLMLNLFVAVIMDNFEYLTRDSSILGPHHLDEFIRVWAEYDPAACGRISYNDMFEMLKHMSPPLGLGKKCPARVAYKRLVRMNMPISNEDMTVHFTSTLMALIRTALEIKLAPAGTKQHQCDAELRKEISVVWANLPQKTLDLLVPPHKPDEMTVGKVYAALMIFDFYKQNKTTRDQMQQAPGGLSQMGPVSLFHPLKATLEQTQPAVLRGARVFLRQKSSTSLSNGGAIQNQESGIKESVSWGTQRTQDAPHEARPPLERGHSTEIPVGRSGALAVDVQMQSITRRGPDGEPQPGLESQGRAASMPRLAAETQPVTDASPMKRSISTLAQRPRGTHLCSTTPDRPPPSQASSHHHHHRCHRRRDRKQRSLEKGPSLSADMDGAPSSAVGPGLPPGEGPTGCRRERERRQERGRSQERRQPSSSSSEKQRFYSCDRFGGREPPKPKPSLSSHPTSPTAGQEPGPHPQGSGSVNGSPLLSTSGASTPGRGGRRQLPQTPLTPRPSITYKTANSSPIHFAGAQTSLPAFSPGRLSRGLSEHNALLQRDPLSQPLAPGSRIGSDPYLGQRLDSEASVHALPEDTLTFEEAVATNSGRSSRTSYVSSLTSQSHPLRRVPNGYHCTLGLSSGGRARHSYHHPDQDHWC
T4 sequence (Q02410 whole entry): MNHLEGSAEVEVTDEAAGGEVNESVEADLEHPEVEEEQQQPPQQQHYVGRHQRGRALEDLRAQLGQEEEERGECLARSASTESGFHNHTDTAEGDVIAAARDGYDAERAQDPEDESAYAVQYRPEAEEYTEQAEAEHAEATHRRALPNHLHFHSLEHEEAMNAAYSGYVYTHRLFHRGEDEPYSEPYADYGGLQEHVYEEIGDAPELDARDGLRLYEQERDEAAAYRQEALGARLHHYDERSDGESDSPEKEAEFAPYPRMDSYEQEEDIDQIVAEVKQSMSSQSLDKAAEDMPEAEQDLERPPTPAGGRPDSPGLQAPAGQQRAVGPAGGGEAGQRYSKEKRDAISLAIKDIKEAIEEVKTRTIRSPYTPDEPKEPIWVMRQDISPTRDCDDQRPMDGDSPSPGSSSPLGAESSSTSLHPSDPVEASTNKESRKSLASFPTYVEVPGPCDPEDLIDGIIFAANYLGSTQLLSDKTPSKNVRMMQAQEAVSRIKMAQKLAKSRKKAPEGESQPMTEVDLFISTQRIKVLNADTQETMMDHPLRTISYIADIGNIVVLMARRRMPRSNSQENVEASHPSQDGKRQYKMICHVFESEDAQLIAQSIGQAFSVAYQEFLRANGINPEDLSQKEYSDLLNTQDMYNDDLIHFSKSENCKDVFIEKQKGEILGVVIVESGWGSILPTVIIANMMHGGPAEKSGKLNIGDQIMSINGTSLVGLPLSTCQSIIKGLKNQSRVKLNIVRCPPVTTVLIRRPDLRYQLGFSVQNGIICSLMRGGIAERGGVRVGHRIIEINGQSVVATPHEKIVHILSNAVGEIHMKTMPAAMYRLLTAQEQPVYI

[21] = molecular target: T4, Voltage-gated N-type calcium channel alpha-1B subunit/Amyloid beta A4 precursor protein-binding family A member 1; experiment: disruptors of Mint-PDZ/N-type channel peptide interaction – biochemical, HTRF, SAR follow-up (AID 2489); type: functional
Neutrophil collagenase = Neutrophil collagenase (Homo sapiens, UniProt P22894); experiment: MMP13 inhibition and MMP selectivity, late-stage follow-up, selectivity assay for MMP13 inhibitor project, biochemical, probe development, late stage results, panel member MMP-8 [IC50 Assay] (AID 2067)
Sequence of Neutrophil collagenase (P22894 whole entry): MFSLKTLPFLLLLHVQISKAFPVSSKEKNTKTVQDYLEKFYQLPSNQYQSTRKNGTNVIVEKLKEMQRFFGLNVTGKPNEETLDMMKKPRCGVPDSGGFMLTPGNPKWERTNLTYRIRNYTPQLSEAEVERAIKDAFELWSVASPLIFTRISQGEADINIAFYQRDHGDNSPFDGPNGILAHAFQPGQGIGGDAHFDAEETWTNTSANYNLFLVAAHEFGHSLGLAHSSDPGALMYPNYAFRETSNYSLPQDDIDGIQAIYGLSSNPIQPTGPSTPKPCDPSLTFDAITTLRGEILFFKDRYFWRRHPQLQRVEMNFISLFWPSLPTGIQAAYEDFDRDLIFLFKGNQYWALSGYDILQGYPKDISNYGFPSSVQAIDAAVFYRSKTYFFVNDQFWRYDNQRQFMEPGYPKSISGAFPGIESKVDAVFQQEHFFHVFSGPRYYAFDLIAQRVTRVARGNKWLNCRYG

[22] = insulin promoter down-regulators in MIN6 cells, imaging, high-content screening, mouse beta cells (AID 1628); type: functional
[23] = molecular target: Guanyl-specific ribonuclease T1 (Aspergillus oryzae (strain ATCC 42149 / RIB 40), UniProt P00651); experiment: RNase T1 inhibitors, dose response, counter-screen for TPT1 inhibitor project, biochemical, fluorescence polarization, 1536-well (AID 2167)
Sequence of Guanyl-specific ribonuclease T1 (P00651 whole entry): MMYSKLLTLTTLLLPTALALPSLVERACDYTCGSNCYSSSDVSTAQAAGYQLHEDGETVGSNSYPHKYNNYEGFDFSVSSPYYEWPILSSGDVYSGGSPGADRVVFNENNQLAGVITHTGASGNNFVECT

[24] = cytotoxicity in MIN6 insulinoma cells, dose response, cytotoxicity control, cell-based, mouse insulinoma (AID 2122); type: functional;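 note: confirmatory high-throughput counterscreen run to flag cytotoxic compounds; mouse MIN-6 beta cells carrying an insulin promoter eGFP reporter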
[25] = molecular target: Likely tRNA 2'-phosphotransferase (Candida albicans (strain SC5314 / ATCC MYA-2876) (Yeast), UniProt Q5A7N4); experiment: TPT1 tRNA phosphotransferase inhibitors, dose response, biochemical, fluorescence polarization (AID 2160)
[26] = cytotoxicity in HEK-293T cells, dose response, cytotoxicity control for TCR NF-kB inhibitor project, luminescence, T-cell screen hits (AID 489026); type: functional, cell-based;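 note: cells exposed to compound about 14 hours before the viability readout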
Nonstructural protein 1 = Nonstructural protein 1 (Influenza A virus, UniProt Q194T2); type: functional, Influenza A virus (A/California/07/2009(H1N1))
[27] = molecular target: T5, Microphthalmia-associated transcription factor (Homo sapiens, UniProt O75030); experiment: TRPM1 promoter luciferase signal decrease, dose response, MITF inhibitor project, cell-based, SK-MEL-5, cherry-picked, set 3 (AID 493073); type: functional
T5 sequence (O75030 whole entry): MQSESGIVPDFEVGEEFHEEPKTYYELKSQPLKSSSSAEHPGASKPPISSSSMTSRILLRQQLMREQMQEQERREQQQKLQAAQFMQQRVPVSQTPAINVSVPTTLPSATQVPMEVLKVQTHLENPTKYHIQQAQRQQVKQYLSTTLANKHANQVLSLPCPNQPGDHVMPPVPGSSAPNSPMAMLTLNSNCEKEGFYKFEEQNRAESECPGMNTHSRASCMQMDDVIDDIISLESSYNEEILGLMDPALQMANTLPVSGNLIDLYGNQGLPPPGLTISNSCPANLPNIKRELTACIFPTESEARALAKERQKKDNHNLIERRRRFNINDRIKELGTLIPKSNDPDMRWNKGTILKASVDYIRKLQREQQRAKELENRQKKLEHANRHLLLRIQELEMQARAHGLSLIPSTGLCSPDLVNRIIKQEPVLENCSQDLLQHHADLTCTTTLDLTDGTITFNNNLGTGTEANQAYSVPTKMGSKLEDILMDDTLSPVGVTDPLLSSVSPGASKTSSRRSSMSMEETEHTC

INS1 = experiment: beta cell apoptosis inhibitors, cytokine rescue, dose response, luminescence, retest (AID 449756); type: functional, cell-based; details: Rattus norvegicus;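 note: cell death triggered by IL-1 beta plus TNF-alpha plus IFN-gamma mixture; protective hits raise ATP signal compared with cytokine alone wells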
[28] = molecular target: G2/mitotic-specific cyclin-B1 (Homo sapiens, UniProt P14635); experiment: Counterscreen assay for inhibitors of Wee1 degradation: dose response cell-based assay to identify inhibitors of cyclin B degradation. [Related pubchem assays: 1410, 1321 ]; type: functional
Wee1-like protein kinase = Wee1-like protein kinase (Homo sapiens, UniProt P30291); experiment: Dose Response Cell-based Assay for Inhibitors of Wee1 Degradation. [Related pubchem assays: 1410, 1321 ]; type: functional
[29] = molecular target: G-protein coupled receptor 35 (Homo sapiens, UniProt Q9HC97); experiment: GPR35 antagonists blocking zaprinast-driven arrestin recruitment, primary screen, imaging, U2OS, beta-arrestin-GFP, zaprinast agonist (AID 2058); type: functional;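 note: antagonist potency meaning inhibition of agonist-induced arrestin redistribution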
[30] = molecular target: G-protein coupled receptor 55 (Homo sapiens, UniProt Q9Y2T6); experiment: GPR55 antagonists blocking LPI-driven arrestin recruitment, primary screen, imaging, U2OS, beta-arrestin-GFP, LPI agonist (AID 2013); type: functional;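 note: antagonist potency measured as reduced agonist-driven arrestin aggregation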
Sequence of G-protein coupled receptor 55 (Q9Y2T6 whole entry): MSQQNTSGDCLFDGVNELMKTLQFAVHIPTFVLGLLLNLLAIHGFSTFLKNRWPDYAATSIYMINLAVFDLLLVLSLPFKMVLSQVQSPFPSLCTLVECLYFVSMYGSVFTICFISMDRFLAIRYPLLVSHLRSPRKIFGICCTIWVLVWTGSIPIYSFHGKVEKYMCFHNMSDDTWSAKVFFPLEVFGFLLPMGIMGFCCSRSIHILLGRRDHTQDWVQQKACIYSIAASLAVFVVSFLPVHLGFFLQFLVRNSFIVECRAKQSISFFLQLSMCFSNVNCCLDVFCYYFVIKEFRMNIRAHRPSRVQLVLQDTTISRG

Cytochrome P450 2C9 = Cytochrome P450 2C9 (Homo sapiens, UniProt P11712)

COCCCNC(=O)Cn1cc(C(=O)C2CC2)c2ccccc21
EC50 [1]: > 50 µM (not active)

CC12C=C(/C=C/c3ccc(C(F)(F)F)cc3)C(C)(C1)C(c1ccc(C(F)(F)F)cc1)CC2=O (stereo unspecified)
AC50 (Cytochrome P450 2D6): 6.31 µM (inconclusive) | AC50 (Cytochrome P450 3A4): 3.98 µM (inconclusive)

COc1cc(NC(=O)CN2C(=O)NC(c3ccccc3)(c3ccccc3)C2=O)cc(OC)c1
EC50 [2]: > 195 µM (not active) | AC50 (Vibrio harveyi [3]): 0.594 µM (active) | AC50 (Vibrio harveyi [4]): 0.77 µM (active) | AC50 (Vibrio harveyi [4]; Vibrio harveyi): 0.671 µM (active)

Nc1ccc(-c2cc3ccccc3oc2=O)cc1
EC50 [5]: < 0.1 µM (active) | EC50 [6]: 0.125 µM (active) | EC50 (cells): 0.215 µM (active) | EC50 [7]: < 0.1 µM (active) | EC50 [8]: < 0.1 µM (active) | EC50 [9]: 0.156 µM (active) | IC50 [10]: > 80 µM (inactive)

CC1=NOC(=O)/C1=C\c1ccc(-c2cc(Cl)ccc2Cl)o1
IC50 (SUMO-activating enzyme [11]): 4.89 µM (active) | IC50 (SUMO-activating enzyme [12]): 11.5 µM (active) | AC50 [13]: 1.04 µM (active) | IC50 [14]: > 66.6 µM (inactive) | IC50 (Beta-galactosidase): > 66.6 µM (inactive) | EC50 [15]: 7.5 µM (active) | EC50 [16]: > 100 µM (inactive) | AC50 [17]: 5.69 µM (active) | AC50 [18]: 9.55 µM (active) | IC50 [19]: > 20 µM (inactive)

COc1ccc(CNC(=O)COC(=O)c2cc(-c3ccc(C)o3)nc3ccccc23)cc1
IC50 (SUMO E1/E2): 4 µM (active) | IC50 [20]: > 56.8 µM (inactive) | IC50 [21]: > 56.8 µM (inactive)

O=c1[nH]c(SCCc2ccccc2)nc2c1CCC2
IC50 (Neutrophil collagenase): > 39.8 µM (inactive)

Cn1cc(C(=O)N/N=C/c2c(O)ccc3ccccc23)ccc1=O
IC50 [22]: 4.33 µM (active) | IC50 [23]: > 55.7 µM (not active) | IC50 [24]: 4.04 µM (active) | IC50 [25]: > 55.7 µM (not active) | IC50 [26]: > 80 µM (inactive) | IC50 (Nonstructural protein 1): > 100 µM (active) | AC50 [27]: 2.55 µM (active) | AC50 (INS1): 0.774 µM (active)

CCN(CC)c1ccc(/C=N/NC(=O)c2cnccn2)cc1
EC50 [28]: > 49.7 µM (not active) | EC50 (Wee1-like protein kinase): > 49.7 µM (not active)

CC(=O)Oc1ccc(C(c2ccc(OC(C)=O)cc2)c2ccccn2)cc1 [BISACODYL]
IC50 [29]: > 32 µM (inactive) | IC50 [30]: 0.908 µM (active) | AC50 (Cytochrome P450 2C9): 15.8 µM (inconclusive)
